This passage reports GI50 results from patent US9132130B2, “Purine derivative and antitumor agent using same” (ZENYAKU KOGYO KABUSHIKI KAISHA, priority 2009, dated 2015).

Format in all cases: cell-based
Assay [1] deals with PC-3 cells (human prostate cancer cells). Briefly: in vitro antitumor activity test, PC-3 cells, XTT colorimetry. The note with it: PC-3 human prostate cancer cells, cultured 72 hours. The gist of the method: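 PC-3 human prostate cancer cells, seeded at 2×10^4 cells/ml and allowed to adhere for 24 h, were exposed 72 h at 37° C, 5% CO2 to compound diluted in RPMI 1640 with 10% FBS to 2.0×10^−9 to 2.0×10^−4 M (pre-addition solutions). Growth was measured by XTT colorimetry and GI50 (μM) calculated.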
(Formazan colour is commonly taken as a measure of viable cells.)

Assay [2] relates to B16F10 cells (mouse melanoma [malignant melanoma] cells). The assay is described as follows: in vitro antitumor activity test, B16F10 cells, XTT colorimetry. The note with it: B16-F10, cultured 72 hours. The gist of the method:
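B16F10 mouse melanoma cells were seeded from a 1×10^4 cells/ml suspension and allowed to adhere for 24 h. Compounds in DMSO were diluted in RPMI 1640 with 10% FBS to 2.0×10^−9 to 2.0×10^−4 M and incubated 72 h at 37° C, 5% CO2. XTT colorimetry gave GI50 (μM).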

The subject of assay [3] is P388 cells (mouse leukemia cells). Briefly: in vitro antitumor activity test, P388 cells, XTT colorimetry. The note with it: cultured 72 hours. The procedure, abridged: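 Cells from DBA/2 mouse ascites, in RPMI 1640 with 10% FBS and 25 mM HEPES, seeded from a 4×10^4 cells/ml suspension. Equal volume added of compound solutions prepared at 2.0×10^−9 to 2.0×10^−4 M (pre-mixing). After 72 h at 37° C, 5% CO2, growth read by XTT; GI50 (μM) is the concentration giving 50% growth inhibition.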

The test system of assay [4] is WiDr cells (human colon cancer cells). Briefly: in vitro antitumor activity test, WiDr cells, XTT colorimetry. The settings on record: cultured 72 hours. The procedure, abridged:
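Human colon cancer cells in MEM/10% FBS were seeded 3×10^4 cells/ml and allowed to adhere for 24 h, then exposed to compounds prepared at 2.0×10^−9 to 2.0×10^−4 M in RPMI 1640 for 72 h at 37° C, 5% CO2. Growth was read by XTT colorimetry and GI50 (μM) calculated.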

The subject of assay [5] is A549 cells (human lung cancer cells). The assay is described as follows: in vitro antitumor activity test, A549 cells, XTT colorimetry. The note with it: cultured 72 hours. The gist of the method: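 Cells seeded at 2×10^4 cells/ml in MEM + 10% FBS, 25 mM HEPES, kanamycin, allowed to adhere 24 h, then exposed to compounds (DMSO stocks diluted in RPMI 1640; prepared at 2.0×10^−9 to 2.0×10^−4 M) for 72 h at 37 °C, 5% CO2. Growth inhibition read by XTT colorimetry; GI50 (μM) calculated.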

Molecules are shown by their SMILES. Where a name gives a salt, the structure may show the parent alone.

One may read the GI50 as the concentration that inhibits growth by half. High values mean lower sensitivity of the cells, low ones greater sensitivity of the cells. On to `COc1ccc(CSc2nc(-c3cn[nH]c3)c3ncn(C)c3n2)cc1` [Compound 170, 2-(4-methoxybenzylsulfanyl)-9-methyl-6-(pyrazol-4-yl)-9H-purine], for which the GI50 in assay [1] was 0.05 µM; in assay [2], 0.07 µM; in assay [3] it was less than 0.04 µM; in assay [4], less than 0.04 µM; in assay [5] it was less than 0.04 µM.
In the case of `CCn1cnc2c(N3C=COCC3)nc(SCc3ccc(OC)c(N)c3)nc21` [Compound 151, 2-(3-amino-4-methoxybenzylsulfanyl)-6-(2,3-dihydro-[1,4]oxadin-4-yl)-9-ethyl-9H-purine], the concentration for 50% growth inhibition (GI50) in assay [1] amounted to 1.44 µM; in assay [2], 1.47 µM; in assay [3], 0.57 µM; in assay [4], 3.4 µM; in assay [5] it was 0.7 µM.
Take `CCNc1nc(SCc2ccc(OC)cc2)nc2c1ncn2C` [Compound 64, 6-ethylamino-2-(4-methoxybenzylsulfanyl)-9-methyl-9H-purine]: the concentration for 50% growth inhibition (GI50) in assay [1] worked out at 0.45 µM; in assay [2], 0.38 µM; in assay [3], 0.38 µM; in assay [4], 0.31 µM; in assay [5], 0.48 µM.
`CCN(C)c1nc(SCc2ccc(OC)c(N)c2)nc2c1ncn2C` [Compound 84, 2-(3-amino-4-methoxybenzylsulfanyl)-6-(N-ethyl-N-methylamino)-9-methyl-9H-purine]: the GI50 in assay [1] was found to be 0.98 µM; in assay [2], 0.51 µM; in assay [3] it was 0.26 µM; in assay [4], 1.9 µM; in assay [5] it was 0.55 µM.
For `CCc1nc2c(N3CCOCC3)nc(SCc3ccc(OC)c(NC(=O)CN)c3)nc2n1C` [Compound 28, 2-[3-(2-aminoacetylamino)-4-methoxybenzylsulfanyl]-8-ethyl-9-methyl-6-morpholino-9H-purine hydrochloride], the GI50 in assay [1] came out at 0.99 µM; in assay [2], 1.14 µM; in assay [3] it was 0.81 µM; in assay [4] it was 1.2 µM; in assay [5], 0.9 µM.
As for `C/C=C/c1nc(SCc2ccc(OC)c(N)c2)nc2c1ncn2C` [Compound 173, 2-(3-amino-4-methoxybenzylsulfanyl)-9-methyl-6-(1-trans-propenyl)-9H-purine], the 50% growth inhibitory concentration (GI50) was found to be 0.38 µM in assay [1]; 0.25 µM in assay [2]; 0.09 µM in assay [3]; 1.51 µM in assay [4]; 0.16 µM in assay [5].
Take `CNc1nc(SCc2ccc(OC)c(C#N)c2)nc2c1ncn2C` [Compound 72, 2-(3-cyano-4-methoxybenzylsulfanyl)-6-methylamino-9-methyl-9H-purine]: the GI50 in assay [1], in assay [2], in assay [3], in assay [4] and in assay [5] was less than 0.04 µM each time.
With `CCOc1ccc(CSc2nc(N3C=COCC3)c3ncn(CC)c3n2)cc1[N+](=O)[O-]` [Compound 155, 6-(2,3-dihydro-[1,4]oxadin-4-yl)-9-ethyl-2-(3-nitro-4-ethoxybenzylsulfanyl)-9H-purine], the concentration for 50% growth inhibition (GI50) is 1.5 µM in assay [1]; 1.31 µM in assay [2]; 0.49 µM in assay [3]; 0.94 µM in assay [4]; 0.5 µM in assay [5].
For `COc1ccc(CSc2nc(N3CCOCC3)c3ncn(C)c3n2)cc1F` [Compound 83, 2-(3-fluoro-4-methoxybenzylsulfanyl)-9-methyl-6-morpholino-9H-purine], the GI50 stood at 0.18 µM in assay [1]; 0.18 µM in assay [2]; 0.09 µM in assay [3]; 0.14 µM in assay [4]; 0.15 µM in assay [5].
On to `CCc1nc2c(N3CCOCC3)nc(SCc3ccc(OC)c(F)c3)nc2n1C` [Compound 14, 8-ethyl-2-(3-fluoro-4-methoxybenzylsulfanyl)-9-methyl-6-morpholino-9H-purine], for which the GI50 is 0.16 µM in assay [1]; 0.34 µM in assay [2]; 0.2 µM in assay [3]; 0.26 µM in assay [4]; 0.12 µM in assay [5].
With `COc1ccc(CSc2nc(N(C)C)c3ncn(C)c3n2)cc1C#N` [Compound 87, 2-(3-cyano-4-methoxybenzylsulfanyl)-6-dimethylamino-9-methyl-9H-purine], the GI50 in assay [1] was 0.04 µM; in assay [2], 0.08 µM; in assay [3] it was 0.02 µM; in assay [4], 0.04 µM; in assay [5], 0.05 µM.
`COc1ccc(CSc2nc(N3CCOCC3)c3ncn(C)c3n2)cc1C#N` [Compound 80, 2-(3-cyano-4-methoxybenzylsulfanyl)-9-methyl-6-morpholino-9H-purine]: the GI50 in assay [1] was found to be 0.07 µM; in assay [2], 0.21 µM; in assay [3], 0.07 µM; in assay [4] it was 0.16 µM; in assay [5] it was 0.14 µM.
As to `COc1ccc(CNc2nc(N3CCOCC3)c3ncn(C)c3n2)cc1` [Compound B, reference compound], the GI50 in assay [1], in assay [2], in assay [3], in assay [4] and in assay [5] was more than 10 µM in each case.
With `CCc1nc2c(N(C)C)nc(SCc3ccc(OC)c(F)c3)nc2n1C` [Compound 71, 6-dimethylamino-8-ethyl-2-(3-fluoro-4-methoxybenzylsulfanyl)-9-methyl-9H-purine], the GI50 turned out to be 0.05 µM in assay [1]; 0.11 µM in assay [2]; 0.08 µM in assay [3]; 0.08 µM in assay [4]; 0.1 µM in assay [5].
For `COc1ccc(CSc2nc(-c3ccc([N+](=O)[O-])cc3)c3ncn(C)c3n2)cc1` [Compound 166, 2-(4-methoxybenzylsulfanyl)-9-methyl-6-(4-nitrophenyl)-9H-purine], the GI50 stood at 1.39 µM in assay [1]; 1.55 µM in assay [2]; 0.28 µM in assay [3]; 0.82 µM in assay [4]; 0.67 µM in assay [5].
On to `COc1ccc(CSc2nc(-n3ccnc3)c3ncn(C)c3n2)cc1` [Compound 110, 6-(imidazol-1-yl)-2-(4-methoxybenzylsulfanyl)-9-methyl-9H-purine], for which the GI50 in assay [1] is 1.4 µM; in assay [2], 1.43 µM; in assay [3], 0.47 µM; in assay [4], 0.79 µM; in assay [5] it was 0.95 µM.
In the case of `CCc1nc2c(N3C=COCC3)nc(SCc3ccc(OC)cc3)nc2n1C` [Compound 148, 6-(2,3-dihydro-[1,4]oxadin-4-yl)-8-ethyl-2-(4-methoxybenzylsulfanyl)-9-methyl-9H-purine], the GI50 in assay [1] is 0.13 µM; in assay [2], 0.29 µM; in assay [3], 0.09 µM; in assay [4], 0.13 µM; in assay [5], 0.24 µM.
In the case of `COc1ccc(CSc2nc(-c3ccsc3)c3ncn(C)c3n2)cc1` [Compound 168, 2-(4-methoxybenzylsulfanyl)-9-methyl-6-(3-thienyl)-9H-purine], the GI50 in assay [1] is 0.32 µM; in assay [2], 0.21 µM; in assay [3], 0.14 µM; in assay [4], 0.14 µM; in assay [5], 0.22 µM.
`CCc1nc2c(N3CCOCC3)nc(SCc3ccc(OC)c(Cl)c3)nc2n1C` [Compound 16, 2-(3-chloro-4-methoxybenzylsulfanyl)-8-ethyl-9-methyl-6-morpholino-9H-purine]: the GI50 came to 0.91 µM in assay [1]; 1.68 µM in assay [2]; 0.85 µM in assay [3]; 1.22 µM in assay [4]; 1.75 µM in assay [5].
